Source: the NIST ThermoML archive (doi:10.1021/acs.jced.7b00107)
± gives the expanded uncertainty stated by the source.

Experiment: molar heat capacity at constant pressure
Conditions: 101.33 kPa, Crystal 1

Cl.NC12CC3CC(CC(C3)C1)C2 [1-aminoadamantane hydrochloride]
molar heat capacity at constant pressure [J/K/mol]
Conditions	Small (less than 1 g) adiabatic calorimetry	Small sample (50 mg) DSC
196.3 K	140.9 ± 0.8	–
197.31 K	141.5 ± 0.8	–
197.81 K	141.9 ± 0.8	–
199.31 K	142.8 ± 0.8	–
199.33 K	142.9 ± 0.8	–
200 K	143.3 ± 0.8	–
200.81 K	143.9 ± 0.8	–
201.34 K	144.3 ± 0.8	–
202.3 K	144.9 ± 0.8	–
203.36 K	145.7 ± 0.8	–
203.8 K	146.1 ± 0.8	–
205.3 K	147 ± 0.8	–
205.38 K	147.1 ± 0.8	–
206.8 K	148 ± 0.8	–
207.4 K	148.4 ± 0.8	–
208.29 K	149 ± 0.8	–
209.42 K	149.8 ± 0.8	–
209.79 K	150 ± 0.8	–
210 K	150.2 ± 0.8	–
211.28 K	151 ± 0.8	–
211.44 K	151.2 ± 0.8	–
212.77 K	152.1 ± 0.8	–
213.46 K	152.6 ± 0.8	–
214.26 K	153.1 ± 0.8	–
215.49 K	154.1 ± 0.8	–
215.75 K	154.2 ± 0.8	–
217.23 K	155.3 ± 0.9	–
217.51 K	155.5 ± 0.9	–
218.71 K	156.2 ± 0.9	–
219.54 K	156.9 ± 0.9	–
220 K	157.3 ± 0.8	–
220.19 K	157.2 ± 0.9	–
221.56 K	158.4 ± 0.9	–
221.67 K	158.4 ± 0.9	–
223.43 K	159.7 ± 0.9	–
223.59 K	159.8 ± 0.9	–
225.29 K	161.1 ± 0.9	–
225.62 K	161.3 ± 0.9	–
227.06 K	162.3 ± 0.9	–
227.64 K	162.8 ± 0.9	–
228.83 K	163.7 ± 0.9	–
229.67 K	164.3 ± 0.9	–
230 K	164.5 ± 0.9	–
230.6 K	165.1 ± 0.9	–
231.7 K	165.8 ± 0.9	–
232.37 K	166.3 ± 0.9	–
233.72 K	167.3 ± 0.9	–
234.13 K	167.6 ± 0.9	–
235.75 K	169 ± 0.9	–
235.89 K	168.9 ± 0.9	–
237.64 K	170.4 ± 0.9	–
237.78 K	170.3 ± 0.9	–
239.4 K	171.9 ± 0.9	–
239.81 K	172.1 ± 0.9	–
240 K	171.8 ± 0.9	–
241.15 K	173.6 ± 0.9	–
241.84 K	174.1 ± 0.9	–
242.89 K	174.2 ± 0.9	–
243.87 K	174.6 ± 0.9	–
244.64 K	175.3 ± 0.9	–
245.91 K	176.1 ± 1	–
246.38 K	176.6 ± 1	–
247.94 K	177.7 ± 1	–
248.13 K	177.9 ± 1	–
249.87 K	179.2 ± 1	–
249.97 K	179.2 ± 1	–
250 K	179.3 ± 1	–
251.6 K	180.5 ± 1	–
252 K	180.7 ± 1	–
253.34 K	181.7 ± 1	–
254.03 K	182.2 ± 1	–
255.07 K	183.1 ± 1	–
256.06 K	183.7 ± 1	–
256.8 K	184.4 ± 1	–
258.09 K	185.3 ± 1	–
258.52 K	185.6 ± 1	–
260 K	186.8 ± 1	–
260.12 K	186.8 ± 1	–
260.24 K	186.9 ± 1	–
262.15 K	188.4 ± 1	–
264.19 K	189.9 ± 1	–
266.22 K	191.4 ± 1	–
268.25 K	193.1 ± 1	–
270 K	194.3 ± 1.1	–
270.28 K	194.5 ± 1	–
272.31 K	196.1 ± 1.1	–
274.35 K	197.7 ± 1.1	–
276.38 K	199.3 ± 1.1	–
278.41 K	200.9 ± 1.1	–
280 K	202.1 ± 1.1	–
280.44 K	202.5 ± 1.1	–
282.47 K	204 ± 1.1	–
284.51 K	205.6 ± 1.1	–
286.53 K	207.1 ± 1.1	–
288.56 K	208.7 ± 1.1	–
290 K	209.9 ± 1.1	–
290.6 K	210.3 ± 1.1	–
292.63 K	211.9 ± 1.1	–
294.66 K	213.5 ± 1.1	–
296.69 K	215 ± 1.1	–
298.15 K	216.2 ± 1.2	–
298.72 K	216.6 ± 1.2	–
300 K	217.6 ± 1.2	–
300.75 K	218.1 ± 1.2	–
302.78 K	219.8 ± 1.2	–
304.81 K	221.3 ± 1.2	–
306.84 K	222.9 ± 1.2	–
308.88 K	224.5 ± 1.2	–
310 K	225.3 ± 1.2	222.6 ± 9.4
310.91 K	226 ± 1.2	–
311.7 K	–	223.7 ± 9.5
312.94 K	227.6 ± 1.2	–
313.3 K	–	224.7 ± 9.5
314.98 K	229.1 ± 1.2	–
315 K	–	226.1 ± 9.6
316.6 K	–	227.2 ± 9.6
317.01 K	230.8 ± 1.2	–
318.2 K	–	228.5 ± 9.7
319.04 K	232.3 ± 1.2	–
319.9 K	–	229.5 ± 9.7
320 K	233 ± 1.2	–
321.08 K	233.9 ± 1.2	–
321.5 K	–	230.9 ± 9.8
323.1 K	–	231.9 ± 9.8
323.11 K	235.4 ± 1.2	–
324.8 K	–	233.5 ± 9.9
325.15 K	237 ± 1.2	–
326.4 K	–	234.8 ± 10
327.19 K	238.6 ± 1.3	–
328 K	–	236 ± 10
329.23 K	240.1 ± 1.3	–
329.6 K	–	237.3 ± 10
330 K	240.7 ± 1.3	–
331.2 K	–	238.4 ± 10
331.26 K	241.7 ± 1.3	–
332.8 K	–	239.6 ± 10
333.3 K	243.3 ± 1.3	–
334.4 K	–	241.2 ± 10
335.34 K	244.9 ± 1.3	–
336 K	–	242.3 ± 10
337.38 K	246.5 ± 1.3	–
337.6 K	–	243.3 ± 10
339.3 K	–	244.7 ± 10
339.42 K	248.1 ± 1.3	–
340 K	248.6 ± 1.3	–
340.9 K	–	246.2 ± 10
341.46 K	249.6 ± 1.3	–
342.5 K	–	247.4 ± 10
343.5 K	251.3 ± 1.3	–
344.1 K	–	248.6 ± 11
345.54 K	252.9 ± 1.3	–
345.7 K	–	249.8 ± 11
347.2 K	–	251.1 ± 11
347.58 K	254.6 ± 1.3	–
348.8 K	–	252.4 ± 11
349.62 K	256.2 ± 1.3	–
350 K	256.5 ± 1.3	–
350.4 K	–	253.7 ± 11
351.66 K	257.8 ± 1.4	–
352 K	–	254.9 ± 11
353.6 K	–	256.1 ± 11
353.7 K	259.4 ± 1.4	–
355.2 K	–	257.6 ± 11
355.74 K	261.1 ± 1.4	–
356.8 K	–	259 ± 11
357.78 K	262.8 ± 1.4	–
358.4 K	–	260.3 ± 11
359.82 K	264.4 ± 1.4	–
360 K	264.5 ± 1.4	261.8 ± 11
361.6 K	–	263.1 ± 11
361.86 K	266 ± 1.4	–
363.2 K	–	264.7 ± 11
363.9 K	267.5 ± 1.4	–
364.8 K	–	265.8 ± 11
365.94 K	269.3 ± 1.4	–
366.3 K	–	267.1 ± 11
367.9 K	–	268.2 ± 11
367.98 K	270.9 ± 1.4	–
369.5 K	–	269.4 ± 11
370 K	272.5 ± 1.4	–
371.1 K	–	270.6 ± 12
372.7 K	–	271.9 ± 12
374.3 K	–	273.2 ± 12
375.9 K	–	274.4 ± 12
377.4 K	–	275.5 ± 12
379 K	–	276.5 ± 12
380 K	–	280 ± 12
380.6 K	–	277.8 ± 12
382.2 K	–	279 ± 12
383.8 K	–	280.3 ± 12
385.4 K	–	281.2 ± 12
386.9 K	–	282.7 ± 12
388.5 K	–	284.1 ± 12
390 K	–	288 ± 13
390.1 K	–	285 ± 12
391.7 K	–	286.5 ± 12
393.3 K	–	287.4 ± 12
394.9 K	–	288.7 ± 12
396.4 K	–	289.9 ± 12
398 K	–	291.3 ± 12
399.6 K	–	292.6 ± 12
400 K	–	296 ± 13
401.2 K	–	293.6 ± 12
402.8 K	–	294.7 ± 12
404.4 K	–	296.2 ± 13
405.9 K	–	297.3 ± 13
407.5 K	–	298.6 ± 13
409.1 K	–	299.8 ± 13
410 K	–	304 ± 13
410.7 K	–	301 ± 13
412.3 K	–	302.3 ± 13
413.8 K	–	303.9 ± 13
415.4 K	–	305.3 ± 13
417 K	–	306.5 ± 13
418.6 K	–	307.7 ± 13
420 K	–	312 ± 13
420.2 K	–	308.7 ± 13
421.7 K	–	309.9 ± 13
423.3 K	–	311.5 ± 13
424.9 K	–	312.6 ± 13
426.5 K	–	313.6 ± 13
428.1 K	–	314.7 ± 13
429.7 K	–	315.8 ± 13
430 K	–	319 ± 14
431.2 K	–	317 ± 14
432.8 K	–	318.4 ± 14
434.4 K	–	319.9 ± 14
436 K	–	321 ± 14
437.6 K	–	322.3 ± 14
439.1 K	–	323.5 ± 14
440 K	–	327 ± 14
440.7 K	–	324.8 ± 14
442.3 K	–	326 ± 14
443.9 K	–	326.9 ± 14
445.5 K	–	328 ± 14
447 K	–	329.5 ± 14
448.6 K	–	330.4 ± 14
450 K	–	334 ± 14
450.2 K	–	331.6 ± 14
451.8 K	–	332.9 ± 14
453.4 K	–	334.4 ± 14
454.9 K	–	335.7 ± 14
456.5 K	–	336.7 ± 14
458.1 K	–	337.3 ± 14
459.7 K	–	338.7 ± 14
460 K	–	342 ± 15
461.3 K	–	339.3 ± 14
462.8 K	–	340.6 ± 14
464.4 K	–	341.7 ± 14
466 K	–	343 ± 15
467.6 K	–	344.1 ± 15
469.2 K	–	345 ± 15
470 K	–	349 ± 15
470.7 K	–	346.4 ± 15
